These results are taken from patent US7902200B2, “Chemical compounds” (AstraZeneca AB, priority 2006, dated 2011).

Each structure is given as a SMILES string. pEC50: −log10 of the molar value.

Assay [1] deals with T1, recombinant human pancreatic GLK (Homo sapiens, UniProt P35557).
T1 construct: 6-His (N); made in house; host or cells: E. coli BL21
T1 sequence (P35557 1-465): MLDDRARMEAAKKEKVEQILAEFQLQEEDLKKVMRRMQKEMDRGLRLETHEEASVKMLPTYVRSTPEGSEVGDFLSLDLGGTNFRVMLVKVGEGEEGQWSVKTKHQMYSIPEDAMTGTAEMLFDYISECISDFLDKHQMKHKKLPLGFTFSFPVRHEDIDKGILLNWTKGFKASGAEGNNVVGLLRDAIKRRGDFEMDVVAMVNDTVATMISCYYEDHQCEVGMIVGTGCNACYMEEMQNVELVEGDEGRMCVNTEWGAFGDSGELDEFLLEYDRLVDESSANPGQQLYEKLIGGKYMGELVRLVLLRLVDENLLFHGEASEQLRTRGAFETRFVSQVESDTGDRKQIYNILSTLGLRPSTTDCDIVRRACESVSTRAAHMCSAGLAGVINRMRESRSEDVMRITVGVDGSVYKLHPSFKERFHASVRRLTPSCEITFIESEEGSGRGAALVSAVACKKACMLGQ
The assay can be described thus: GKH1 variant of GLK enzymatic activity assay (manual bench-top rate assay). Type of assay: biochemical. To be noted: activation of GLK; 60 nmol/l GLK; rate over 5 minute window; no GLKRP. As for the experimental part: (§1) Enzymatic activity of recombinant human pancreatic GLK may be measured by incubating GLK, ATP and glucose. The rate of product formation may be determined by coupling the assay to a G-6-P dehydrogenase, NADP/NADPH system and measuring the linear increase with time of optical density at 340 nm (Brocklehurst et al (Diabetes 2004, 53, 535-541). Activation of GLK by compounds can be assessed using this assay in the presence or absence of GLKRP as described in Brocklehurst et al (Diabetes 2004, 53, 535-541).
(§2) One or both of two variants of this assay, GKH1 and GKH4, were used to test the compounds of the invention. The GKH1 assay is a manual, bench-top rate assay using 60 nmol/l of recombinant human pancreatic GLK. The GLK activity rate is measured over a 5 minute window using a Multiskan Ascent spectrophotometer. The GKH4 assay is an automated end-point assay using 10 nmol/l of recombinant human pancreatic GLK. The GLK activity is measured at 10 minutes after the initiation of the assay on a Perkin Elmer Envision spectrophotometer.

For assay [2], the target named is T1, recombinant human pancreatic GLK. The assay can be described thus: GKH4 variant of GLK enzymatic activity assay (automated end-point assay). Type of assay: biochemical. The conditions noted are these: activation of GLK; 10 nmol/l GLK; end-point at 10 minutes; no GLKRP. As for the experimental part:
as §1, §2

A word on the pEC50: it is the EC50 on a negative log10 scale, so that one unit is a factor of ten. As to `CN1CC[C@H](Oc2cc(Oc3ccc(C(=O)N4CCC4)nc3)cc(C(=O)Nc3ccccn3)c2)C1=O` [Example 13, 3-[6-(Azetidine-1-carbonyl)pyridin-3-yl]oxy-5-[(3S)-1-methyl-2-oxo-pyrrolidin-3-yl]oxy-N-pyridin-2-yl-benzamide], the pEC50 in assay [1] was 6.37; in assay [2], 6.77.
As for `Cc1cnc(NC(=O)c2cc(Oc3ccc4c(c3)OCN(C)C4=O)cc(O[C@H]3CCN(C)C3=O)c2)cn1` [Example 15, 3-[(4-Methyl-5-oxo-2-oxa-4-azabicyclo[4.4.0]deca-6,8,10-trien-9-yl)oxy]-5-(1-methyl-2-oxo-pyrrolidin-3-yl)oxy-N-(5-methylpyrazin-2-yl)benzamide], the negative logarithm of the EC50 (pEC50) is 7.00 in assay [1] and 6.46 in assay [2].
On the same counts, the results for `Cc1cnc(NC(=O)c2cc(Oc3ccc(C(=O)N4CCC4)nc3)cc(O[C@@H]3CCN(C4CC4)C3=O)c2)cn1` [Example 18, 3-[6-(Azetidine-1-carbonyl)pyridin-3-yl]oxy-5-[(3R)-1-cyclopropyl-2-oxo-pyrrolidin-3-yl]oxy-N-(5-methylpyrazin-2-yl)benzamide] are 5.48 and 5.14.
For `Cc1cnc(NC(=O)c2cc(Oc3ccc(C(=O)N4CCC4)nc3)cc(O[C@@H]3CCN(C4CCC4)C3=O)c2)cn1` [Example 20, 3-[6-(Azetidine-1-carbonyl)pyridin-3-yl]oxy-5-[(3R)-1-cyclobutyl-2-oxo-pyrrolidin-3-yl]oxy-N-(5-methylpyrazin-2-yl)benzamide], in that order: 6.38 and 6.05.
For `Cc1cnc(NC(=O)c2cc(Oc3ccc(C(=O)N4CCC4)nc3)cc(O[C@H]3CCN(C4CCC4)C3=O)c2)cn1` [Example 21, 3-[6-(Azetidine-1-carbonyl)pyridin-3-yl]oxy-5-[(3S)-1-cyclobutyl-2-oxo-pyrrolidin-3-yl]oxy-N-(5-methylpyrazin-2-yl)benzamide], in that order: 6.68 and 5.95.
For the compound `CCN1CC[C@@H](Oc2cc(Oc3ccc(C(=O)N4CCC4)nc3)cc(C(=O)Nc3cnc(C)cn3)c2)C1=O` [Example 22, -[6-(Azetidine-1-carbonyl)pyridin-3-yl]oxy-5-[(3R)-1-ethyl-2-oxo-pyrrolidin-3-yl]oxy-N-(5-methylpyrazin-2-yl)benzamide], the values for the pEC50 in assay [1] and in assay [2] were 5.63 and 5.18, respectively.
For `CCN1CC[C@H](Oc2cc(Oc3ccc(C(=O)N4CCC4)nc3)cc(C(=O)Nc3cnc(C)cn3)c2)C1=O` [Example 23, 3-[6-(Azetidine-1-carbonyl)pyridin-3-yl]oxy-5-[(3S)-1-ethyl-2-oxo-pyrrolidin-3-yl]oxy-N-(5-methylpyrazin-2-yl)benzamide], in that order: 7.30 and 6.66.
For `Cc1cnc(NC(=O)c2cc(Oc3cnc(C(=O)N(C)C)cn3)cc(O[C@H]3CCN(C)C3=O)c2)cn1` [Example 24, N,N-Dimethyl-5-[3-[(3S)-1-methyl-2-oxo-pyrrolidin-3-yl]oxy-5-[(5-methylpyrazin-2-yl)carbamoyl]phenoxy]pyrazine-2-carboxamide], in that order: 6.82 and 6.24.
For `CN1CC[C@H](Oc2cc(Oc3ccc4c(c3)OCCCS4(=O)=O)cc(C(=O)Nc3cc[nH]n3)c2)C1=O` [Example 25, 3-[(2,2-Dioxo-6-oxa-2-λ^6-thiabicyclo[5.4.0]undeca-7,9,11-trien-9-yl)oxy]-5-[(3S)-1-methyl-2-oxo-pyrrolidin-3-yl]oxy-N-(1H-pyrazol-3-yl)benzamide], in that order: 7.52 and 7.40.
